Experimental data taken from article PMC11705217, “Substrate preference, RNA binding and active site versatility of Stenotrophomonas maltophilia nuclease SmNuc1, explained by a structural study” (The Febs Journal, 2024).

Target: T1, SmNuc1 (SmNuc1WT) (Stenotrophomonas maltophilia, UniProt B2FSF8)
T1 construct: gene Smlt3806; mature enzyme of 246 residues, 28 kDa, N-terminal Trp27 (native signal removed, expressed with MalE signal peptide), C-terminal His-tag kept, pET303/CT-His, E. coli Lemo21(DE3); three Zn2+ in active site
Test: in crystallo cleavage (crystal soak, […]), X-ray structure shows product […]'-GMP
Format: biochemical
Details: pH 6.5; only product 5'-GMP seen in structure 9EMG

## Nc1nc2c(ncn2[C@@H]2O[C@@H]3COP(=O)(O)O[C@H]4[C@@H](O)[C@H](n5cnc6c(=O)[nH]c(N)nc65)O[C@@H]4COP(=O)(O)O[C@H]3[C@H]2O)c(=O)[nH]1 [c‐di‐GMP]
  in crystallo cleavage (crystal soak, 5 mM), X-ray structure shows product 5'-GMP: c‐di‐GMP was soaked into a crystal of SmNuc1, resulting in the SmNuc1:GMP* structure
